What was measured:
WEE1 = target: T1, WEE1 (Homo sapiens, UniProt P30291); experiment: Radioisotope filter activity assay, recombinant kinase; type: biochemical; settings: 10 point dose response, 10 µM ATP
T1 construct: purchased Reaction Biology Corporation
Protocol: (§1) The effect of SAB298 on a panel of 36 recombinant kinases, was screed with the radioisotope filter binding assay employing 10 concentrations of the compound with 10 µM ATP (Reaction Biology Corporation, Malvern, PA). In addition, we tested the endogenous kinome response to SAB298 (0.05 µM, 0.5 µM and 5 µM) in lysates from two melanoma cell lines (YUSIV and YUSIK) employing the KiNativ® platform (ActivX Biosciences Inc., La Jolla, CA). KiNativ® is a robust, high performance mass spectrometry (LC-MS^2) assay that uses biotinylated probes to measure relevant changes in the affinity to the ATP-binding sites of 205 native kinases as a function of cellular context. We also validated SAB298 effect on the activity of SRC-family kinases by probing for phosphorylated Y416, the marker of activated SFKs, with anti-IEDNEpYTAR antibodies (also known as Y419, #2101, Cell Signaling Technology, Beverly, MA). In some cases the cells were incubated overnight with 20 µM proteasome inhibitor MG-132 (CAS 133407-82-6, Millipore Sigma, Burlington, MA) to rescue degradation.
(§2) Supplemntary Table 3: Radioisotope filter activity assay Tests for SAB298 target protein
(§3) *These are results from 10 point dose response test employed with 10 µM ATP. […]
(§4) SRC TRCN0000195339 3ʹUTR […]
(§5) YES TRCN0000001611 CDS […]
(§6) FYN TRCN0000003099 CDS […]
(§7) LY N TRCN0000230901 CDS […]

FLT3 = target: T2, FLT3 (Homo sapiens, UniProt P36888); experiment: as above; type: biochemical; settings: 10 point dose response, 10 µM ATP
T2 construct: purchased Reaction Biology Corporation
Protocol: as §1, §2, §3, §4, §5, §6, §7

IGF1R = target: T3, IGF1R (Homo sapiens, UniProt P08069); experiment: as above; type: biochemical; settings: 10 point dose response, 10 µM ATP
T3 construct: purchased Reaction Biology Corporation
Protocol: as §1, §2, §3, §4, §5, §6, §7

BLK = target: T4, BLK (Homo sapiens, UniProt P51451); experiment: as above; type: biochemical; settings: 10 point dose response, 10 µM ATP
T4 construct: purchased Reaction Biology Corporation
Protocol: as §1, §2, §3, §4, §5, §6, §7

BRAF = target: T5, BRAF (Homo sapiens, UniProt P15056); experiment: as above; type: biochemical; settings: 10 point dose response, 10 µM ATP
T5 construct: purchased Reaction Biology Corporation
Protocol: as §1, §2, §3, §4, §5, §6, §7

RAF1 = target: T6, RAF1 (Homo sapiens, UniProt P04049); experiment: as above; type: biochemical; settings: 10 point dose response, 10 µM ATP
T6 construct: purchased Reaction Biology Corporation
Protocol: as §1, §2, §3, §4, §5, §6, §7

CDK4/Cyclin D1 = target: T7, CDK4/Cyclin D1 (Homo sapiens, UniProt P11802); experiment: as above; type: biochemical; settings: 10 point dose response, 10 µM ATP
T7 construct: purchased Reaction Biology Corporation
Protocol: as §1, §2, §3, §4, §5, §6, §7

ABL1 = target: T8, ABL1 (Homo sapiens, UniProt P00519); experiment: as above; type: biochemical; settings: 10 point dose response, 10 µM ATP
T8 construct: purchased Reaction Biology Corporation
Protocol: as §1, §2, §3, §4, §5, §6, §7

BTK = target: T9, BTK (Homo sapiens, UniProt Q06187); experiment: as above; type: biochemical; settings: 10 point dose response, 10 µM ATP
T9 construct: purchased Reaction Biology Corporation
Protocol: as §1, §2, §3, §4, §5, §6, §7

ARAF = target: T10, ARAF (Homo sapiens, UniProt P10398); experiment: as above; type: biochemical; settings: 10 point dose response, 10 µM ATP
T10 construct: purchased Reaction Biology Corporation
Protocol: as §1, §2, §3, §4, §5, §6, §7

FYN = target: T11, FYN (Homo sapiens, UniProt P06241); experiment: as above; type: biochemical; settings: 10 point dose response, 10 µM ATP
T11 construct: purchased Reaction Biology Corporation
Protocol: as §1, §2, §3, §4, §5, §6, §7

BRK = target: T12, BRK (Homo sapiens, UniProt Q13882); experiment: as above; type: biochemical; settings: 10 point dose response, 10 µM ATP
T12 construct: purchased Reaction Biology Corporation
Protocol: as §1, §2, §3, §4, §5, §6, §7

HCK = target: T13, HCK (Homo sapiens, UniProt P08631); experiment: as above; type: biochemical; settings: 10 point dose response, 10 µM ATP
T13 construct: purchased Reaction Biology Corporation
Protocol: as §1, §2, §3, §4, §5, §6, §7

FGR = target: T14, FGR (Homo sapiens, UniProt P09769); experiment: as above; type: biochemical; settings: 10 point dose response, 10 µM ATP
T14 construct: purchased Reaction Biology Corporation
Protocol: as §1, §2, §3, §4, §5, §6, §7

ERBB2 [1] = target: T15, ERBB2 (Homo sapiens, UniProt P04626); experiment: as above; type: biochemical; parameters: purchased Reaction Biology Corporation; settings: 10 point dose response, 10 µM ATP
T15 sequence (P04626 23-1255): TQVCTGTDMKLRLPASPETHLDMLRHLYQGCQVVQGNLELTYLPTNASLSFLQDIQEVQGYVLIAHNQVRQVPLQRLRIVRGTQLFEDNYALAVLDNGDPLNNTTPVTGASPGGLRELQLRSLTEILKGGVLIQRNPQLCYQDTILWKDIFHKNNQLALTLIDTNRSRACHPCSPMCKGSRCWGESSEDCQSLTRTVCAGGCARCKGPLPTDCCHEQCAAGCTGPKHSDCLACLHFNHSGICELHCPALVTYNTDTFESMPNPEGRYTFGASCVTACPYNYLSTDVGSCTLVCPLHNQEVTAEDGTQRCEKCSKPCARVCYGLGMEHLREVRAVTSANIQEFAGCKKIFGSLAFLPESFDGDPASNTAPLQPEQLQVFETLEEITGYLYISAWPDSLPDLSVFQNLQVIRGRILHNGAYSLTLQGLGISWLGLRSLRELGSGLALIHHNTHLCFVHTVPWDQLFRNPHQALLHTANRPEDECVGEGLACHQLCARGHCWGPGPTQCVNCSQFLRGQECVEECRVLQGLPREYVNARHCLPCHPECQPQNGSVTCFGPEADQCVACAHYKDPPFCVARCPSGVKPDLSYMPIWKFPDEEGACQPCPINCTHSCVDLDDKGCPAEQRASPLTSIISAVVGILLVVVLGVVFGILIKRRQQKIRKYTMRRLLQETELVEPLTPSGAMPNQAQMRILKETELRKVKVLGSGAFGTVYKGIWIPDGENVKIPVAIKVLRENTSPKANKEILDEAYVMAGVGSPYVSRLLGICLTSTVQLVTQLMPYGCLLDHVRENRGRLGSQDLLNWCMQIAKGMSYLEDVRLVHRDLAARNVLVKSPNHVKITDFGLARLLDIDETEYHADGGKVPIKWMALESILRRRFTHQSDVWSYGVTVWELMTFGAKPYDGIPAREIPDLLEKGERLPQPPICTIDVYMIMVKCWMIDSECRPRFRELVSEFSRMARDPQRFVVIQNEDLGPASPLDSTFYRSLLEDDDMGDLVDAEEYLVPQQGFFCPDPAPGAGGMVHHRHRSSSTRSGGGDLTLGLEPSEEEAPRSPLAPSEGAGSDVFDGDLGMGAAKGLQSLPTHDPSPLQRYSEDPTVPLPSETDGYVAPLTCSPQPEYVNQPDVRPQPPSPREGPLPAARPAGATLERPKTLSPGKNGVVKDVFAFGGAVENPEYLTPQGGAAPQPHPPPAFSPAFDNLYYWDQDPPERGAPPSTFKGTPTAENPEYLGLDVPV
Protocol: as §1, §2, §3, §4, §5, §6, §7

CSK [2] = target: T16, CSK (Homo sapiens, UniProt P41240); experiment: as above; type: biochemical; parameters: purchased Reaction Biology Corporation; settings: 10 point dose response, 10 µM ATP
T16 sequence (P41240 whole entry): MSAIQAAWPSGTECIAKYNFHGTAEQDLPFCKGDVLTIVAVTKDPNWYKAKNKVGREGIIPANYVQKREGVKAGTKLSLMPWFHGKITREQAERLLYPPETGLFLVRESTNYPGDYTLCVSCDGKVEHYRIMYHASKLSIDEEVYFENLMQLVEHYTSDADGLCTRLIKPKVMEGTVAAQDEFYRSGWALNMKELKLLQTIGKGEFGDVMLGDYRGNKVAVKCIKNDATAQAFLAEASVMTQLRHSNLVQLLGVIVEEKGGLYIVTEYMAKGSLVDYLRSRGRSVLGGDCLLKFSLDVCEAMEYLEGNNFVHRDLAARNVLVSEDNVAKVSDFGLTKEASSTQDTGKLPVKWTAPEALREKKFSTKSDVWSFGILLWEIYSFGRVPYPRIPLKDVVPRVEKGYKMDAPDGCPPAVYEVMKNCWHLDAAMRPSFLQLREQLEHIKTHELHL
Protocol: as §1, §2, §3, §4, §5, §6, §7

ERBB2 [3] = target: T15, ERBB2; experiment: KiNativ in situ kinase profiling in melanoma cell lysates; type: binding; parameters: we tested the endogenous kinome response to SAB298; host or cells: YUSIV and YUSIK melanoma cell lysates; settings: for IC50: 3-point dose response
Protocol: as §1

ABL2 = ABL2 (Homo sapiens, UniProt P42684); experiment: as above; type: binding; parameters: we tested the endogenous kinome response to SAB298; host or cells: YUSIV and YUSIK melanoma cell lysates; settings: 3-point dose response
ABL2, sequence (P42684 whole entry): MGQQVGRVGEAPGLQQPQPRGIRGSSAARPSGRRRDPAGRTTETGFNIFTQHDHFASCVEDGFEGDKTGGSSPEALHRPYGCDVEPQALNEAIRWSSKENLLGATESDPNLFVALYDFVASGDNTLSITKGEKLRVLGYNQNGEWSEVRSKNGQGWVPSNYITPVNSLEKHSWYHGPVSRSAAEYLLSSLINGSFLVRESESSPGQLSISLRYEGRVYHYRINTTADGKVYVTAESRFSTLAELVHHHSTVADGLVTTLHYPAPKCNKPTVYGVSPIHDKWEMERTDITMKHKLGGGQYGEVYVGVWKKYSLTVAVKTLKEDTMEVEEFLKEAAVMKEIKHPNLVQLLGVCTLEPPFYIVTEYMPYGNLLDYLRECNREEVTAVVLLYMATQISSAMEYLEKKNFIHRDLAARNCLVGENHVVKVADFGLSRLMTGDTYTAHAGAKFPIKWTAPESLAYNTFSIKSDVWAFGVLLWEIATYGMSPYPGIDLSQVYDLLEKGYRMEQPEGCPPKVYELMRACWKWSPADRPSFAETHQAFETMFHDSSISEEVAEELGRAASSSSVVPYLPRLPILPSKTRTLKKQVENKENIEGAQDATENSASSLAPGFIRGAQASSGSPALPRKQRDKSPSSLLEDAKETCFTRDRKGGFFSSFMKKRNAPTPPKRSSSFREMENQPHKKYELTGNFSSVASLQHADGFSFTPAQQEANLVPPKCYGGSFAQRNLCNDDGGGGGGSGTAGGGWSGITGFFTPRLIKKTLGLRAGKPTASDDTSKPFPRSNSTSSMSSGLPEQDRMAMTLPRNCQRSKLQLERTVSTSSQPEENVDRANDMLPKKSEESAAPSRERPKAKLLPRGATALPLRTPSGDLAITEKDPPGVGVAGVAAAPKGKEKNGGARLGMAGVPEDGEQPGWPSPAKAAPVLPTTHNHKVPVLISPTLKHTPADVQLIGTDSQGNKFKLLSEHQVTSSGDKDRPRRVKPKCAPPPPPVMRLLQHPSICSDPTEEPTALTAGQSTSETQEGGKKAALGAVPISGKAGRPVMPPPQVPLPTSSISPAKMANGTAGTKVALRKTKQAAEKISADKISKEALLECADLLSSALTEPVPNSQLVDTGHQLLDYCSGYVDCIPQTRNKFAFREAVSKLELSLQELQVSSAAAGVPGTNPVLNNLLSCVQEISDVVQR
Protocol: as §1

CSK [4] = target: T16, CSK; experiment: as above; type: binding; parameters: we tested the endogenous kinome response to SAB298; host or cells: YUSIV and YUSIK melanoma cell lysates; settings: 3-point dose response
Protocol: as §1

mTOR = target: T17, mTOR (Homo sapiens, UniProt P42345); experiment: as above; type: binding; settings: 3-point dose response
T17 construct: we tested the endogenous kinome response to SAB298; host or cells: YUSIV and YUSIK melanoma cell lysates
Protocol: as §1

RIPK2 = target: T18, RIPK2 (Homo sapiens, UniProt O43353); experiment: as above; type: binding; settings: RIPK2 in YUSIK lysate; 3-point dose response
T18 construct: we tested the endogenous kinome response to SAB298; host or cells: YUSIV or YUSIK melanoma cell lysate
Protocol: as §1

EGFR = target: T19, EGFR (Homo sapiens, UniProt P00533); experiment: as above; type: binding; settings: 3-point dose response
T19 construct: we tested the endogenous kinome response to SAB298; host or cells: YUSIV and YUSIK melanoma cell lysates
Protocol: as §1

ERBB3 = target: T20, ERBB3 (Homo sapiens, UniProt P21860); experiment: as above; type: binding; settings: 3-point dose response
T20 construct: we tested the endogenous kinome response to SAB298; host or cells: YUSIV and YUSIK melanoma cell lysates
T20 sequence (P21860 20-1342): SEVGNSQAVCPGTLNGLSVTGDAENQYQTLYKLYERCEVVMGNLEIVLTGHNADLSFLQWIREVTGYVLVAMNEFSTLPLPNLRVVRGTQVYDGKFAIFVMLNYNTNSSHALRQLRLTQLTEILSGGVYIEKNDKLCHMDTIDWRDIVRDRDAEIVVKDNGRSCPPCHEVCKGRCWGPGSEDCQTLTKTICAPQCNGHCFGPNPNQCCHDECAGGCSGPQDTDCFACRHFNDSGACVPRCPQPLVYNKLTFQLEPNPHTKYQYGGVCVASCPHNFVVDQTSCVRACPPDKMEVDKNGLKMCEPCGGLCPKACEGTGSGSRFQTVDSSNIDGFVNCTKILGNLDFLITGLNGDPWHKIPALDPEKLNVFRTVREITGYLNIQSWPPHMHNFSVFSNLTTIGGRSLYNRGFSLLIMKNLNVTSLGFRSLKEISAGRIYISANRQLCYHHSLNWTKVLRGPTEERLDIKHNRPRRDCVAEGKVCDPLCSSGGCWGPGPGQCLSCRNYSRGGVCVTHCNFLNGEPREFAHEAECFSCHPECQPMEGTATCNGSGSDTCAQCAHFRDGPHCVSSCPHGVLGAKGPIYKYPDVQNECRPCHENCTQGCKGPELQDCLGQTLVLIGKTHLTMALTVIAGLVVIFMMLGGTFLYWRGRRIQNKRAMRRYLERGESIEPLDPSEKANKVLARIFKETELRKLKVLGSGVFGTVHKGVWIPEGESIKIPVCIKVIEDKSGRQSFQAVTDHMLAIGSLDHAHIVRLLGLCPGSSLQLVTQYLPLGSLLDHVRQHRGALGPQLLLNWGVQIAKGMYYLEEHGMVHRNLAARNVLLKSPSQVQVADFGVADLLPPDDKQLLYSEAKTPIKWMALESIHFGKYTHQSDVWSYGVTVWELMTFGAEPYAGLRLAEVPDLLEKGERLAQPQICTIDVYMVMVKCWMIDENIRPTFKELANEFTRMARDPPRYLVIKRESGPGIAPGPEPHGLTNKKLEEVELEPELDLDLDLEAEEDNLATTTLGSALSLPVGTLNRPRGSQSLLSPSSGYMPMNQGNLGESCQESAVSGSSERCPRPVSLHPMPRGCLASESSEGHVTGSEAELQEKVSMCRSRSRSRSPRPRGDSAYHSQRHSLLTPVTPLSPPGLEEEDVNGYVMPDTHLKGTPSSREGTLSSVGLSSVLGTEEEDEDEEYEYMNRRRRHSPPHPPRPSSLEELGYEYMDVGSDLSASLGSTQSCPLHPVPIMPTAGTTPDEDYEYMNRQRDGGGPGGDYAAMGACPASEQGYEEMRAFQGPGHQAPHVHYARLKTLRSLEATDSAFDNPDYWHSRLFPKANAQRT
Protocol: as §1

MEK1 = target: T21, MEK1 (Homo sapiens, UniProt Q02750); experiment: as above; type: binding; settings: MEK1 in YUSIV lysate; 3-point dose response
T21 construct: we tested the endogenous kinome response to SAB298; host or cells: YUSIV or YUSIK melanoma cell lysate
T21 sequence (Q02750 whole entry): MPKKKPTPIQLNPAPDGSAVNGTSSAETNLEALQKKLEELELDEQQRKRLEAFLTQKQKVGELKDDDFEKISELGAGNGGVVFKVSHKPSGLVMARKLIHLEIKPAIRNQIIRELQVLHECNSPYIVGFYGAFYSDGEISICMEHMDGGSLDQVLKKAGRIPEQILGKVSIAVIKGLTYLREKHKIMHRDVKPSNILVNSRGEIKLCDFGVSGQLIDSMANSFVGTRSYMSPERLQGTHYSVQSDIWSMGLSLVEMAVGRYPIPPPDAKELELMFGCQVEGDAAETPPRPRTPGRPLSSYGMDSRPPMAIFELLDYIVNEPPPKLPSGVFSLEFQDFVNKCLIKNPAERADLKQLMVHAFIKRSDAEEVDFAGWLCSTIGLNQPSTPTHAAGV
Protocol: as §1

MEK5 = target: T22, MEK5 (Homo sapiens, UniProt Q13163); experiment: as above; type: binding; settings: 3-point dose response
T22 construct: we tested the endogenous kinome response to SAB298; host or cells: YUSIV and YUSIK melanoma cell lysates
T22 sequence (Q13163 whole entry): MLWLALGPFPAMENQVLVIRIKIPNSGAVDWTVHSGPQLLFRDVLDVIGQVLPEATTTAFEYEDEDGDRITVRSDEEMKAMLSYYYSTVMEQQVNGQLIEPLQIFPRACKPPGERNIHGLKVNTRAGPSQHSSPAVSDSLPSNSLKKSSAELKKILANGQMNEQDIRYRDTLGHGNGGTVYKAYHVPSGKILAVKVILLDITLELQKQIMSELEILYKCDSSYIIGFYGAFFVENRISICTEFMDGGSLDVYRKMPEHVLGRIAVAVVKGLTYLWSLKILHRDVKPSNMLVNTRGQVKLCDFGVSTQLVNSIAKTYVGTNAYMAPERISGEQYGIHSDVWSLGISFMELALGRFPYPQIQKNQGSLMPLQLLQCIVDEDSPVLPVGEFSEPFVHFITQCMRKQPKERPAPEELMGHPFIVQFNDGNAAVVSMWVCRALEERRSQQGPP
Protocol: as §1

## Nc1ncnc2c1c(-c1ccc(Oc3ccccc3)cc1)nn2C[C@@H]1SSC[C@@H]1O [SAB298, (3S, 4S)-3-((4-amino-3-(4-phenoxyphenyl)-1H-pyrazolo[3,4-d]pyrimidin-1-yl)methyl)-1,2-dithiolan-4-ol]
WEE1
  IC50: > 10 µM
FLT3
  IC50: 71 nM
IGF1R
  IC50: > 10 µM
BLK
  IC50: 6.5 nM
BRAF
  IC50: > 10 µM
RAF1
  IC50: 2800 nM
CDK4/Cyclin D1
  IC50: > 10 µM
ABL1
  IC50: 4.14 µM
BTK
  IC50: 78 nM
ARAF
  IC50: 1200 nM
FYN
  IC50: 21.7 nM
BRK
  IC50: 35.5 nM
HCK
  IC50: 16.3 nM
FGR
  IC50: 7.8 nM
ERBB2 [1]
  IC50: 8.86 µM
CSK [2]
  IC50: 139 nM
ERBB2 [3]; ERBB2
  higher binding affinity in KiNativ assay compared to radioisotope filtration binding assay: ~20 fold
ERBB2 [3]; ERBB2 in YUSIK lysate
  IC50: 530 nM
ERBB2 [3]; ERBB2 in YUSIV lysate
  IC50: 410 nM
ABL2; ABL2 in YUSIK lysate
  IC50: 240 nM
ABL2; ABL2 in YUSIV lysate
  IC50: 87 nM
CSK [4]; CSK in YUSIK lysate
  IC50: 910 nM
CSK [4]; CSK in YUSIV lysate
  IC50: 420 nM
mTOR; mTOR in YUSIK lysate
  IC50: 2000 nM
mTOR; mTOR in YUSIV lysate
  IC50: 1300 nM
RIPK2
  IC50: 20 nM
EGFR; EGFR in YUSIK lysate
  IC50: 530 nM
EGFR; EGFR in YUSIV lysate
  IC50: 1300 nM
ERBB3; ERBB3 in YUSIK lysate
  IC50: 240 nM
ERBB3; ERBB3 in YUSIV lysate
  IC50: 290 nM
MEK1
  IC50: 2900 nM
MEK5; MEK5 in YUSIK lysate
  IC50: 1500 nM
MEK5; MEK5 in YUSIV lysate
  IC50: 370 nM

Reference: article PMC6481345, “A novel anti-melanoma SRC-family kinase inhibitor” (Oncotarget, 2019)
